Legend:
[1] = system: patients with interstitial cystitis; details: oral administration, long term basis; cited from earlier work
MMCP4 = assay: Taq-Man analysis of bladder mRNA, allergic IC in mice: MMCP4; type: in vivo, mouse; details: ovalbumin challenged vs vehicle; oral ug/kg: E 0.3, F 30, H 1, I 3; H, I p<0.05, E, F p<0.001
Method: (§1) Mice (BALB/c, females 8 weeks old, weight 18-20 g, Charles River, Calco ITA) were sensitized by injecting 10 ug/mouse of chicken ovalbumin from Sigma (OVA, grade V) in the presence of 4 mg of alum (SERVA, Germany) by intraperitoneal injection, once a week for 4 weeks. This induces a sustained level of IgE detectable in serum.
(§2) One or two weeks after the last immunization boost, sensitized mice were anesthetized (1.5% Isoflurane) and then trans-urethrally catheterized (24 gauge, ¾ in.; Angiocath, Becton-Dickson). Slight digital pressure was applied the lower abdomen to drain the urine.
(§3) The urinary bladders were instilled with either 150 ul of either saline or OVA alone, (1 mg/150 ul) infused at a slow rate to avoid trauma and vesico-ureteral reflux and repeated twice within a 30-min interval with the syringe kept in place on the catheter for at least 30 min. Intravesical challenge was repeated 7-10 days after the first one with the same procedure.
(§4) An ethanol stock solution of Compound B (1 mg/ml) was dissolved in Miglyol vehicle at the appropriate concentration. Control animals received the vehicle containing the same amount of ethanol. Drug (or vehicle) treatment was carried out by daily gavage after weighing the animal. Drug solution was prepared calculating a final volume of 100 ul/10 grams body weight, and treatment was started on the day of the first intravesical ovalbumin challenge, maintained daily, but discontinued over the weekends, for 12 days total treatment. FIG. 7 illustrates the timeline of the experiment.
(§5) Total RNA was extracted from one half of bladder by using RNeasy Mini kit (Qiagen), treated with DNase 1 (Qiagen) and reverse transcription performed with Reverse Transcription Reagent (Applied Biosystems) with Random Hexamers (according to the manufacturer's instructions). cDNA was synthesized from 1 ug of RNA. Real-Time PCR was performed in 96-well optical reaction plates (Applied Biosystems). For each sample we amplified both the target gene and the housekeeping gene (HPRT) in different wells (singleplex) and in duplicate. The amplification Master Mix was prepared according to the following protocol (volumes refer to a single well with a final volume of 40 ul/well)): 2× TaqMan® R Universal PCR Master Mix (Applied Biosystems, 4304437): 20 ul; 20× Assay target gene: 2 ul; H2O: 8 ul; cDNA: 10 ul. Reaction was run on an SDS 7000 (Applied Biosystems) instruments, with the following amplification program: 2′ at 50° C.; 10′ at 95° C.; 15″ at 95° C. and 1′ at 60° C. for 40 cycles; Cycle threshold (Ct) values were exported into Excel Worksheets for analysis and relative quantitations were performed using the ΔCt method. All primers used carried the FAM reporter.
(§6) Experiments in Example 7 were performed according to the general procedures described previously in Example 6. Mice were challenged with saline (untreated) or ovalbumin (treatment with vehicle or one of Compounds C-I at a dosage indicated in Table 6 in ug/kg).

[2] = system: allergen-induced chronic bladder inflammation; assay: Efficacy ranking in the allergen-induced chronic bladder inflammation model of interstitial cystitis; type: in vivo, mouse; details: each compound at its tested dosage
Method: as §6
Summarizing all the results presented above in Example 7, we can conclude that these compounds can be ranked with respect to their efficacy in reducing several parameters measuring inflammation of the bladder in the allergen-induced chronic bladder inflammation model of interstitial cystitis.

IL-13 = assay: Taq-Man analysis of bladder mRNA, allergic IC in mice: IL-13; type: in vivo, mouse; details: ovalbumin challenged vs vehicle; oral ug/kg: E 0.3, F 30, H 1, I 3; H, I p<0.05, E, F p<0.001
Method: as §1, §2, §3, §4, §5, §6

FcεR1α = assay: Taq-Man analysis of bladder mRNA, allergic IC in mice: FcεR1α; type: in vivo, mouse; details: ovalbumin challenged vs vehicle; oral ug/kg: E 0.3, F 30, H 1; E, H p<0.05, F p<0.001
Method: as §1, §2, §3, §4, §5, §6

MMCP1 protein = assay: Serum level of mast-cell derived chymase MMCP1 protein, allergic IC in mice; type: in vivo, mouse; details: ovalbumin challenged vs vehicle; oral ug/kg: A 0.1, E 0.3, F 30; F p<0.05, A, E p<0.001
Method: as §1, §2, §3
Treatment Group: 10 mice were treated with oral vitamin D3 analogue (1-alpha-fluoro-25-hydroxy-16,23Ediene-26,27-bishomo-20-epi-cholecalciferol) Compound “B” for 14 days (daily dose of either 30 or 75 ug/kg).
as §4, §6

[3] = Calcemia assessment in allergic IC mice (colorimetric serum calcium assay); type: in vivo, mouse; details: oral ug/kg: C 3, A 0.1, E 0.3, F 30, G 100, H 1, I 3; elevations p<0.001
Method: Serum calcemia was evaluated by a commercially available colorimetric assay (Calcium Dry-Fast, Sentinel CH. Italy). Briefly, 10 ul serum were added to 100 ul reaction solution prepared according to the manufacturer's procedure in a 96-wells plate. After 5 min incubation at RT samples were read at 570 nm with a spectrophotometer and the calcium levels were calculated in triplicate by using a standard reference as directed.

BPH cells = details: previously found; cited from earlier work
[4] = system: ovalbumin-challenged mouse bladder; assay: Blind histological analysis of bladder sections, allergic IC in mice; type: in vivo; details: p<0.05; for number of LMPC in the bladder wall: oral ug/kg: E 0.3, I 3, vs vehicle
Method: as §1, §2, §3, §4
Bladders were explanted from the animals, longitudinally divided in two moieties, one half was either immediately fixed in formalin (10% buffered) for at least 3 hrs or snap frozen in liquid nitrogen upon inclusion in OCT freezing medium (Tissue-Tek Sakura). For histological analysis, fixed bladders were further processed and finally paraffin embedded. Five um sections were serially cut then stained with GIEMSA (BDH, 20% solution, 3 hrs RT) and then de-stained in 0.1% acetic acid for 10 sec. After a clarification step in Xylene, slides were permanently mounted with Eukitt medium and analyzed by a pathologist in a blinded fashion in order to evaluate for inflammatory cell infiltrate, mast cell numbers, and the presence of interstitial edema. A semi-quantitative histological score was used, assigning: 1 for mild infiltrate, no edema; 2 for intermediate infiltration, little edema; and 3 for severe infiltration and edema.
as §6

Row | Molecule | patients who show a beneficial effect [1] | mRNA expression level of MMCP4 gene (MMCP4) | Efficacy ranking in reducing parameters of bladder inflammation [2] | mRNA expression level of the IL-13 gene (IL-13) | mRNA expression level of the FcεR1α gene (FcεR1α) | serum level of the MMCP1 protein (MMCP1 protein) | serum calcium levels relative to the vehicle treated control group [3] | BPH cell proliferation (BPH cells) | mitogenic activity of growth factors KGF and IGF1 for BPH cells (BPH cells) | numbers of mast cells in the bladder wall ([4]; 3 ug/kg oral vs vehicle) | number of LMPC in the bladder wall [4]
1 | pentosan polysulphate sodium [PPS] | less than 20% | – | – | – | – | – | – | – | – | – | –
2 | C=C1/C(=C\C=C2/CCC[C@@]3(C)C2CCC3C2(CCCC(C)(C)O)CC2)CC(OC(C)=O)C[C@@H]1OC(C)=O (stereo partly shown) [Compound F, 1,3-Di-O-acetyl-1,25-dihydroxy-20-cyclopropyl-cholecalciferol] | – | statistically significant reductions | Compound E>Compound F>Compound B>Compound H>Compound I>Compound A>Compound A=Compound G | statistically significant reductions | statistically significant reductions | statistically significant reduction | slight elevation | – | – | – | –
3 | C=C1CC[C@H](O)C/C1=C/C=C1\CCC[C@]2(C)[C@@H]([C@H](C)CCCC(C)C)CC[C@@H]12 [vitamin D3] | – | – | – | – | – | – | – | inhibited | counteracted | – | –
4 | CC(=O)OC1C/C(=C/C=C2\CCC[C@]3(C)C(C(C)CCCC(C)(C)O)=CCC23)C[C@@H](OC(C)=O)C1 (stereo partly shown) [Compound C, 1,3-Di-O-acetyl-1,25-dihydroxy-16-ene-19-nor-cholecalciferol] | – | – | – | – | – | – | slight elevation | – | – | significantly reduced numbers | –
5 | C=C1/C(=C\C=C2/CCC[C@]3(C)C(C4(CCCC(C)(C)O)CC4)=CCC23)CC(O)C[C@@H]1O (stereo partly drawn) [Compound H, 1α,25-Dihydroxy-16-ene-20-cyclopropyl-cholecalciferol] | – | statistically significant reductions | Compound E>Compound F>Compound B>Compound H>Compound I>Compound A>Compound A=Compound G | statistically significant reductions | statistically significant reductions | – | slight elevation | – | – | – | –
6 | CC(C)(O)CCCC(CCCC(C)(C)O)[C@H]1CC[C@H]2/C(=C/C=C3C[C@@H](O)C[C@H](O)C3)CCC[C@]12C [Compound I, 1,25-dihydroxy-21-(3-hydroxy-3-methylbutyl)-19-nor-cholecalciferol] | – | statistically significant reductions | Compound E>Compound F>Compound B>Compound H>Compound I>Compound A>Compound A=Compound G | statistically significant reductions | – | – | slight elevation | – | – | – | significant reduction
7 | CC(=O)OC1C/C(=C/C=C2\CCC[C@@]3(C)C2CCC3C2(C/C=C/C(O)(C(F)(F)F)C(F)(F)F)CC2)C[C@@H](OC(C)=O)C1 (stereo partly shown) [Compound E, 1,3-Di-O-acetyl-1,25-dihydroxy-20-cyclopropyl-23E-ene-26,27-hexafluoro-19-nor-cholecalciferol] | – | statistically significant reductions | Compound E>Compound F>Compound B>Compound H>Compound I>Compound A>Compound A=Compound G | statistically significant reductions | statistically significant reductions | statistically significant reduction | slight elevation | – | – | – | significant reduction

— patent US20080039434A1, “Treatment of Interstitial Cystitis with Vitamin D Compounds” (BioXell S. p.A., priority 2004, published 2008)
